Source: patent US20110065675A1, “AZO DYE RELATED SMALL MOLECULE MODULATORS OF PROTEIN-PROTEIN INTERACTIONS” (University of Miami, priority 2008, published 2011)

How the values were obtained:
human CD19+ B cells = test: Inhibition of CD154-induced human B-cell proliferation (BrdU ELISA); type: cell-based
Description: CD40 stimulation is an important proliferation signal for human B cell proliferation (Fecteau et al., “CD40 stimulation of human peripheral B lymphocytes: distinct response from naive and memory cells. J. Immunol., vol. 171, pp. 4621-4629, 2003; Wiesner et al., “Conditional immortalization of human B cells by CD40 ligation,” PLoS ONE, vol. 3, pp. e1464, 2008), and soluble CD154 (CD40 ligand) can dose-dependently induce the proliferation of human CD19^+ B cells as measured by standard proliferation .assays. […]
The detailed procedure is as follows: Frozen MPB CD19^+ B lymphocytes (approximately 10^6 cells per vial) were obtained from StemCells Technologies (Vancouver, Canada), thawed in a 37° C. water bath until no crystal piece was left, and the cell suspension was transferred to a 50 mL conical tube. […] This was repeated, the cells were counted, and the concentration of viable cells was adjusted to approximately 1×10^6 cells/mL. […] A colorimetric cell proliferation ELISA BrdU from Roche Applied Science (Indianapolis, Ind.) was used as immunoassay for quantification of cell proliferation based on the measurement of BrdU incorporation during DNA replication. […]

human TNF-R1/TNFα = human TNF-R1/TNFα (Homo sapiens, UniProt P01375+P19438); test: Specificity test: human TNF-R1/TNFα binding inhibition assay; details: for IC50: cell-free binding, read-out: Human TNFR1/TNFα IC50
human TNF-R1/TNFα, sequence (P01375 77-233 limits assumed): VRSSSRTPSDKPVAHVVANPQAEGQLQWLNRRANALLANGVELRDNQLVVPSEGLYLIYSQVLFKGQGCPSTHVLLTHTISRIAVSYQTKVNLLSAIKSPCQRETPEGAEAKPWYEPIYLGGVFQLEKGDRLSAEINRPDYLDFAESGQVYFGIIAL
human TNF-R1/TNFα, sequence (P19438 30-211 limits assumed): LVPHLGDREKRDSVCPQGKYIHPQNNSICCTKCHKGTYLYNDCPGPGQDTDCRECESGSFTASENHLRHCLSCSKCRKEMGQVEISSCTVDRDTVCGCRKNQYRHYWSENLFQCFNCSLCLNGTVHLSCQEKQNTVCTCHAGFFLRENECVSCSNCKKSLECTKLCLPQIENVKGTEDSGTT
Description: A main concern for the therapeutic applicability of these compounds and of small molecule PPI inhibitors in general is related to their ability to achieve some acceptable degree of selectivity/specificity for the PPI of interest. To identify compounds that show acceptable specificity for the CD40/CD154 system, their ability to inhibit the TNF-R1/TNF-α PPI was investigated since this is particularly relevant as CD154 is part of the TNF superfamily. The experimental setup used was very similar to the one described in Example 1, but using plate-coated TNF-R1 and TNF-α as ligand (with a corresponding anti-TNF-α mAb as positive control). The concentration of TNF-R1 and TNF-α used were 0.6 μg/mL and 0.02 μg/mL, respectively.

[1] = molecular target: T1, mouse CD40/CD154 (mCD40:mCD154) (Mus musculus, UniProt P27548); test: Murine CD40/CD154 binding inhibition assay; details: for IC50: cell-free binding, read-out: Mouse CD40/CD154 IC50
T1 construct: (FLAG-tagged) mCD154 (recombinant mouse CD40L, soluble, Alexis Biochemicals); purchased R&D Systems (mCD40/Fc); Alexis Biochemicals (mCD154)
T1 sequence (P27548 112-260 limits assumed): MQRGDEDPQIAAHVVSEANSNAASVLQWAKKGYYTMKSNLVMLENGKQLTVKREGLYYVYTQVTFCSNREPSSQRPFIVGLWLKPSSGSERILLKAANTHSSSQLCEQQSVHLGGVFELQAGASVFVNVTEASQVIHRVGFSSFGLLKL
Description: Compounds of interest were also tested in a murine (mouse) model similar to the human one with murine CD40 and CD154 replacing the corresponding human proteins. This serves as additional confirmation of the in vitro inhibitory potential of these compounds, and it was considered important because mouse models are likely to be used as the first in vivo tests. […] The experimental setup used was similar to the one described above, but using mCD40 (recombinant mouse CD40/TNFRSF5/Fc Chimera, soluble, R&D Systems) and (FLAG-tagged) mCD154 (recombinant mouse CD40L, soluble, Alexis Biochemicals). This time, however, a higher concentration of CD154 ligand had to be employed to obtain adequate signals, and after a number of calibration tests, mCD40 coating at 0.3125 μg/mL with mCD154 (mCD40L) at 1.1212 μg/mL range was selected to be used to screen the inhibiting activity of various compounds.
The experiments confirmed that the murine anti-CD154 monoclonal antibody (Taconic, MR1) was active in this system at the expected concentration (˜1 nM range), the human antibody was not, and vice versa, the human mAb was active in the human system, but not in the mouse system. The mouse system provided a similar range of activity with some (up to approximately five-fold) changes in activities compared to that seen in the human system (FIG. 2) (Table 1).

| IC50 (human TNF-R1/TNFα) [µM] | IC50 [1] [µM] | Human TNFR1/TNFα log IC50 (human TNF-R1/TNFα; log of IC50, cell-free binding) | Mouse CD40/CD154 log IC50 ([1]; log of IC50, cell-free binding) | SMILES | IC50 (human CD19+ B cells; Homo sapiens, B-cell, CD19+ B cells, 48 h + 48 h BrdU) [µM] | Inhibition of CD154-induced B-cell proliferation (human CD19+ B cells) |
| --- | --- | --- | --- | --- | --- | --- |
| 486 | 4.5 | – | – | Cc1ccc(C(=O)Nc2ccc(S(=O)(=O)O)c3cc(S(=O)(=O)O)cc(S(=O)(=O)O)c23)cc1NC(=O)c1cccc(NC(=O)Nc2cccc(C(=O)Nc3cc(C(=O)Nc4ccc(S(=O)(=O)O)c5cc(S(=O)(=O)O)cc(S(=O)(=O)O)c45)ccc3C)c2)c1 [Suramin, reference compound] | 50 to 100 | – |
| > 2000 | > 2000 | >−3.0 | >−3.0 | O=C([O-])C1=NN(c2ccc(S(=O)(=O)[O-])cc2)C(=O)C1N=Nc1ccc(S(=O)(=O)[O-])cc1.[Na+].[Na+].[Na+] (centres unmarked) [Tartrazine (FD&C yellow 5), Tartrazine, reference compound] | – | no proliferation inhibiting activity |
